Test results from US8835429B2, “Pyrimidine compounds, their use as mTOR kinase and Pl3 kinase inhibitors, and their syntheses” (Wyeth LLC, priority 2009, dated 2014).
Like-named read-outs stand apart in the source and are kept apart here.

Experiments:
[1] = tested on: LNCap; assay: In vitro cell growth assay (MTS), LNCap; type: cell-based; settings: human prostate line, three days after drug treatment
Method: (§1) The cell lines used were human prostate lines LNCap and PC3MM2, human breast lines MDA468 and MCF7, human renal line HTB44 (A498), human colon line HCT116, and human ovarian line OVCAR3. Cells were plated in 96-well culture plates. One day following plating, the inhibitors were added to cells. Three days after drug treatment, viable cell densities were determined by metabolic conversion (by viable cells) of the dye MTS, a well-established cell proliferation assay. The assays were performed using an assay kit purchased from Promega Corp. (Madison, Wis.) following the protocol supplied with the kit. The MTS assay results were read in a 96-well plate reader by measuring absorbance at 490 nm. The effect of each treatment was calculated as percent of control growth relative to the vehicle-treated cells grown in the same culture plate.

[2] = tested on: MDA468; assay: In vitro cell growth assay (MTS), MDA468; type: cell-based; settings: human breast line MDA468, three days after drug treatment, read-out: MDA IC50
Method: as §1

[3] = molecular target: mTOR (Homo sapiens, UniProt P42345); assay: mTOR enzyme assay (DELFIA, purified FLAG-TOR, His6-S6K substrate); type: biochemical; set-up: FLAG; settings: 100 μM ATP, 2 hours
Sequence of mTOR (P42345 1360-2549 limits assumed): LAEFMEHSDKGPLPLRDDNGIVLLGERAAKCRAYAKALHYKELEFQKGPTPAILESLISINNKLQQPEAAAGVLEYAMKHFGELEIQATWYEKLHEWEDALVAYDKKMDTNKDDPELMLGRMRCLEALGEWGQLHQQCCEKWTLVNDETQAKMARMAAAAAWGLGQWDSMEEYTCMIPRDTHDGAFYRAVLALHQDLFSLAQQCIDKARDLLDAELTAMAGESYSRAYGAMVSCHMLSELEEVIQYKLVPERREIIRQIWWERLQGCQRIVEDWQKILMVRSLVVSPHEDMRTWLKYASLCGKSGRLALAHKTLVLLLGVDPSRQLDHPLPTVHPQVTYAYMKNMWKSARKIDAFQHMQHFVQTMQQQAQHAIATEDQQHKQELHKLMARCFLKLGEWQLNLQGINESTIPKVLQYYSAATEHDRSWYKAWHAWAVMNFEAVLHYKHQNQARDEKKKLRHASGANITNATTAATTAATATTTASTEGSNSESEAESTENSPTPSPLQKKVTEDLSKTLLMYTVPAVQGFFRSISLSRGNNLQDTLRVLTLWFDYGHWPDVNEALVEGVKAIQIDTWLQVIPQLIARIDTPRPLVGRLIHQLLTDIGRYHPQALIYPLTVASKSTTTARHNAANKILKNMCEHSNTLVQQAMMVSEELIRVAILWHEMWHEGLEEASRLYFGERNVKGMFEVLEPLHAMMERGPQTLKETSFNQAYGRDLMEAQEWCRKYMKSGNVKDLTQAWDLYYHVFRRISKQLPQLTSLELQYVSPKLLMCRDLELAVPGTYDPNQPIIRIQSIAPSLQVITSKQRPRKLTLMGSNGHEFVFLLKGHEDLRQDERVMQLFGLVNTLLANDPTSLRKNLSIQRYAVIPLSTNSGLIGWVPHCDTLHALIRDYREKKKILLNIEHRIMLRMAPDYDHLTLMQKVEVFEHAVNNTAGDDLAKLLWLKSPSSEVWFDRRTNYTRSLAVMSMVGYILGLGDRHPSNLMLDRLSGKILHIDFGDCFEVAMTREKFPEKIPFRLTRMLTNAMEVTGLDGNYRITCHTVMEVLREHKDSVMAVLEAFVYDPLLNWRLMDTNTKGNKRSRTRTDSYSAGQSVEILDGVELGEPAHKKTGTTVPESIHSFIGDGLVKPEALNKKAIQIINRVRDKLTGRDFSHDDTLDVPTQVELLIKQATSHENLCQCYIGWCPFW

[4] = molecular target: PI3K-alpha (Homo sapiens, UniProt P42336); assay: PI3K-alpha fluorescence polarization assay; type: biochemical; settings: 20 μM PIP2, 25 μM ATP; read-out: PI3Kα IC50
Sequence of PI3K-alpha (P42336 whole entry, species assumed): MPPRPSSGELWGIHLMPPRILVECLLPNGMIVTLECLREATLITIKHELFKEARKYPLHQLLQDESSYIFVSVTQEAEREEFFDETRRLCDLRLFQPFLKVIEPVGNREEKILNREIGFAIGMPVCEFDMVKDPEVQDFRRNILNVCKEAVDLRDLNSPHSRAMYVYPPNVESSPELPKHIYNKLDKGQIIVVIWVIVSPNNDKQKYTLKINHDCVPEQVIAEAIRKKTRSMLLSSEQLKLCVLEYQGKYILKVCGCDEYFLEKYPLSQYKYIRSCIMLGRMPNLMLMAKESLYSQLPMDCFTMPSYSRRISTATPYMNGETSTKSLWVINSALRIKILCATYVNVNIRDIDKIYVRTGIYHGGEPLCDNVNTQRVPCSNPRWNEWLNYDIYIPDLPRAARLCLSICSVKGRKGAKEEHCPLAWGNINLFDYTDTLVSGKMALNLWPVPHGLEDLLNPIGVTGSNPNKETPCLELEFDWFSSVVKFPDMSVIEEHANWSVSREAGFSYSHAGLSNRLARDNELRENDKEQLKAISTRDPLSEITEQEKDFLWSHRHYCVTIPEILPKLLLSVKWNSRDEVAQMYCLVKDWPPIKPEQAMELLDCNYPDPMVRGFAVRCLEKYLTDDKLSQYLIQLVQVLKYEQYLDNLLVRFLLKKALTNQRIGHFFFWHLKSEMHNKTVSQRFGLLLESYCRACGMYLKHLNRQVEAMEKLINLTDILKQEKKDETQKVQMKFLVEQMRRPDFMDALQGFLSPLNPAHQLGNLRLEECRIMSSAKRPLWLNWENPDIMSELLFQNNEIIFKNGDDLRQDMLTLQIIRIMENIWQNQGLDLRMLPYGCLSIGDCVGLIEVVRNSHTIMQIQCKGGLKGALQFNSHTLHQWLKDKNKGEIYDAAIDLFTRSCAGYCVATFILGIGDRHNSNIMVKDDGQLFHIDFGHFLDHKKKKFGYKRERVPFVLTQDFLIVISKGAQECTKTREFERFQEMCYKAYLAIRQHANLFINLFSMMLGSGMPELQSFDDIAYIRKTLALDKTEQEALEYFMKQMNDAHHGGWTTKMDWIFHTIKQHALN
Sequence of PI3K-alpha (P27986 whole entry partner, species assumed): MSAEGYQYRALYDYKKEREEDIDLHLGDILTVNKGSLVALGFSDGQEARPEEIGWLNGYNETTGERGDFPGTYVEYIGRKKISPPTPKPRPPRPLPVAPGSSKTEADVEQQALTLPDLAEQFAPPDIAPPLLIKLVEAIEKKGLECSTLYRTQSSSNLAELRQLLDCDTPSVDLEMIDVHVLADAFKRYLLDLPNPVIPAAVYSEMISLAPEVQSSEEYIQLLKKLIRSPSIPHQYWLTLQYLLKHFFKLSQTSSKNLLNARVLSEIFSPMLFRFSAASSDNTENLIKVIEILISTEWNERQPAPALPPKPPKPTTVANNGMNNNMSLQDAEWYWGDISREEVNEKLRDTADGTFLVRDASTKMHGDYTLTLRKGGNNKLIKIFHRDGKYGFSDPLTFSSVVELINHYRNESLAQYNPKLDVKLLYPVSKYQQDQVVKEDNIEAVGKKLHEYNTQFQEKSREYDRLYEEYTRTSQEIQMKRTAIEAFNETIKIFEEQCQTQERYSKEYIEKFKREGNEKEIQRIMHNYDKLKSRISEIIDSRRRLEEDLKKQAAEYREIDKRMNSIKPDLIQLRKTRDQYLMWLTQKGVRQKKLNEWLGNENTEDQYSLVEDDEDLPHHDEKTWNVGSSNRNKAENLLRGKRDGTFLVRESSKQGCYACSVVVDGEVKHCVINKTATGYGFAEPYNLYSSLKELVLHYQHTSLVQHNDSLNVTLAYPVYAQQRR
Method: The reaction buffer was 20 mM HEPES, pH 7.5, 2 mM MgCl2, 0.05% CHAPS; and 0.01% βME (added fresh). The stop/detection buffer was 100 mM HEPES, pH 7.5, 4 mM EDTA, 0.05% CHAPS; ATP 20 mM in water; PIP2 (diC8, Echelon, Salt Lake City Utah cat #P-4508) 1 mM in water (MW=856.5). The GST-GRP was 1.75 mg/mL or 1.4 mg/mL in 10% glycerol. The red detector (TAMRA) was 2.5 μM. Nunc 384-well black polypropylene fluorescent plates were used for PI3K assays.
The assay is run by placing 5 μL of diluted enzyme per well, then 5 μL of diluted compound (or 9.5 μL enzyme then 0.5 μL compound in DMSO) is added and mixed. Then, 10 μL substrate is added to start the reaction. The samples are incubated 30-60 minutes, then the reaction is stopped by adding 20 μL stop/detector mix. PI3K is diluted with reaction buffer (e.g., 5 μL or 7.5 μL PI3K into 620 μL reaction buffer), and 5 μL of diluted enzyme is used per well. A 5 μL portion of reaction buffer or of drug diluted in buffer (e.g., 4 μL/100 so final DMSO is 1% in reaction) is added to each. Pipetting up and down mixes the samples. Alternatively, the enzyme can be diluted to 1215 μL. In this case 9.8 μL is added per well and 0.2 μL compound is added in DMSO.
To prepare 1 mL of substrate solution, 955 μL reaction buffer, 40 μL PIP2, and 2.5 μL ATP are mixed. 10 μL of substrate is added to each well to start the reaction. […] The stop/detector mix is prepared by mixing 4 μL red detector and 1.6 μL or 2.0 μL GST-GRP with 1 mL stop buffer, which results in 10 nM probe and 70 nM GST-GRP. 20 μL of the stop/detector mix is added to each well to stop the reaction. The plates are read after 30-90 minutes keeping the red probe solutions dark. For the zero time point, stop/detector mix is added to the enzyme just before adding substrate. For an extra control, stop/detector mix is added to buffer (no enzyme) and substrate or to just buffer (no substrate). […] The recommended reaction has 0.06 μL per 20 μL (0.015 μg/20 μL) or 0.01125 μg/15 μL or 0.75 μg/mL.
Plates are read on machines with filters for TAMRA. The units are mP with no enzyme controls reading app 190-220 mP units. Fully active enzyme reduces fluorescence polarization down to 70-100 mP after 30 minutes. An active compound raises the mP values halfway to control or to 120-150 mP units.

SMILES	IC50 ([1]; LNCaP, 72 h) [nM]	IC50 [3] [nM]	IC50 [4] [nM]	IC50 [1] [nM]	IC50 ([2]; 72 h) [nM]	IC50 [2] [nM]
CC(C)Nc1cc(N2C3CCC2COC3)nc(-c2ccc(NC(=O)Nc3ccc(N4CCN(C)CC4)nc3)cc2)n1 [1-{4-[4-(isopropylamino)-6-(3-oxa-8-azabicyclo[3.2.1]oct-8-yl)pyrimidin-2-yl]phenyl}-3-[6-(4-methylpiperazin-1-yl)pyridin-3-yl]urea]	90	4.2	3870		100	
CNC(=O)Nc1ccc(-c2cc(N3CC4CCC(C3)O4)nc(N3CC4CCC(C3)O4)n2)cc1 [1-[4-(2,6-di-8-oxa-3-azabicyclo[3.2.1]oct-3-ylpyrimidin-4-yl)phenyl]-3-methylurea]	1600	20.5	2490		4200	
CC(C)Nc1cc(N2C3CCC2COC3)nc(-c2ccc(NC(=O)Nc3ccncc3)cc2)n1 [1-{4-[4-(isopropylamino)-6-(3-oxa-8-azabicyclo[3.2.1]oct-8-yl)pyrimidin-2-yl]phenyl}-3-pyridin-4-ylurea]	13	1.4	2500		29	
O=C(Nc1ccc(-c2cc(N3CC4CCC(C3)O4)nc(-c3ccc(NC(=O)OCCO)cc3)n2)cc1)OCCO [bis(2-hydroxyethyl) {[6-(8-oxa-3-azabicyclo[3.2.1]oct-3-yl)pyrimidine-2,4-diyl]di-4,1-phenylene}biscarbamate]	240	9.4	5000		1600	
O=C(Nc1ccc(-c2cc(N3CC4CCC(C3)O4)nc(-c3ccc(NC(=O)NC4CC4)cc3)n2)cc1)NC1CC1 [N′,N′″-{[6-(8-oxa-3-azabicyclo[3.2.1]oct-3-yl)pyrimidine-2,4-diyl]di-4,1-phenylene}bis(1-cyclopropylurea)]	310	4	2920		1500	
CN1CCN(c2ccc(NC(=O)Nc3ccc(-c4cc(N5CC6CCC(C5)O6)nc(-c5ccc(NC(=O)Nc6ccc(N7CCN(C)CC7)cc6)cc5)n4)cc3)cc2)CC1 [N′,N′″-{[6-(8-oxa-3-azabicyclo[3.2.1]oct-3-yl)pyrimidine-2,4-diyl]di-4,1-phenylene}bis{1-[4-(4-methylpiperazin-1-yl)phenyl]urea}]	300	2.15	1020		760	
CC(C)Nc1cc(N2CC3CCC(C2)O3)nc(-c2ccc(NC(=O)NC3CC3)cc2)n1 [1-cyclopropyl-3-(4-{4-[(1-methylethyl)amino]-6-(8-oxa-3-azabicyclo[3.2.1]oct-3-yl)pyrimidin-2-yl}phenyl)urea]	700	8.2	3620		4200	
CN(C)CCOc1ccc(NC(=O)Nc2ccc(-c3nc(N4C5CCC4COC5)cc(N4C5CCC4COC5)n3)cc2)cc1 [1-{4-[2-(dimethylamino)ethoxy]phenyl}-3-[4-(4,6-di-3-oxa-8-azabicyclo[3.2.1]oct-8-ylpyrimidin-2-yl)phenyl]urea]	4	2.5	1540		9	
NC(=O)c1ccc(NC(=O)Nc2ccc(-c3cc(N4CC5CCC(C4)O5)nc(-c4ccc(NC(=O)Nc5ccc(C(N)=O)cc5)cc4)n3)cc2)cc1 [4,4′-{[6-(8-oxa-3-azabicyclo[3.2.1]oct-3-yl)pyrimidine-2,4-diyl]bis(4,1-phenylenecarbamoylimino)}dibenzamide]		0.58	44.5	41		45
O=C(Nc1ccncc1)Nc1ccc(-c2cc(N3CC4CCC(C3)O4)nc(N3CC4CCC(C3)O4)n2)cc1 [1-[4-(2,6-di-8-oxa-3-azabicyclo[3.2.1]oct-3-ylpyrimidin-4-yl)phenyl]-3-pyridin-4-ylurea]	130	2.45	137		380	
O=C(Nc1ccc(-c2cc(N3CC4CCC(C3)O4)nc(N3CC4CCC(C3)O4)n2)cc1)NC1CC1 [1-cyclopropyl-3-[4-(2,6-di-8-oxa-3-azabicyclo[3.2.1]oct-3-ylpyrimidin-4-yl)phenyl]urea]	800	38.5	3930		6000	
CNC(=O)Nc1ccc(-c2nccc(N3CC4CCC(C3)O4)n2)cc1 [1-methyl-3-{4-[4-(8-oxa-3-azabicyclo[3.2.1]oct-3-yl)pyrimidin-2-yl]phenyl}urea]	2500	132	1840		10500	
CN1CCN(c2ccc(NC(=O)Nc3ccc(-c4cc(N5CC6CCC(C5)O6)nc(N5CC6CCC(C5)O6)n4)cc3)cc2)CC1 [1-[4-(2,6-di-8-oxa-3-azabicyclo[3.2.1]oct-3-ylpyrimidin-4-yl)phenyl]-3-[4-(4-methylpiperazin-1-yl)phenyl]urea]	40	9.55	588		160	

Continued, in another order:

IC50 ([1]; LNCaP, 72 h) [nM]	IC50 [3] [nM]	IC50 [4] [nM]	IC50 [1] [nM]	SMILES	IC50 ([2]; 72 h) [nM]	IC50 [2] [nM]
15	2.95	343		CN1CCN(c2ccc(NC(=O)Nc3ccc(-c4nc(CS(C)(=O)=O)cc(N5CC6CCC(C5)O6)n4)cc3)cc2)CC1 [1-[4-(4-methylpiperazin-1-yl)phenyl]-3-(4-{4-[(methylsulfonyl)methyl]-6-(8-oxa-3-azabicyclo[3.2.1]oct-3-yl)pyrimidin-2-yl}phenyl)urea]	30	
195	1.02	341		CS(=O)(=O)Cc1cc(N2CC3CCC(C2)O3)nc(-c2ccc(NC(=O)Nc3cccnc3)cc2)n1 [1-(4-{4-[(methylsulfonyl)methyl]-6-(8-oxa-3-azabicyclo[3.2.1]oct-3-yl)pyrimidin-2-yl}phenyl)-3-pyridin-3-ylurea]	170	
1200	2.8	990		CNC(=O)Nc1ccc(-c2cc(N3CC4CCC(C3)O4)nc(-c3ccc(NC(=O)NC)cc3)n2)cc1 [N′,N′″-{[6-(8-oxa-3-azabicyclo[3.2.1]oct-3-yl)pyrimidine-2,4-diyl]di-4,1-phenylene}bis(1-methylurea)]	1100	
23	1.35	264		CC(C)Oc1cc(N2CC3CCC(C2)O3)nc(-c2ccc(NC(=O)Nc3ccncc3)cc2)n1 [1-{4-[4-(1-methylethoxy)-6-(8-oxa-3-azabicyclo[3.2.1]oct-3-yl)pyrimidin-2-yl]phenyl}-3-pyridin-4-ylurea]	180	
56	2.9	102		O=C(Nc1ccc(CO)cc1)Nc1ccc(-c2nc(-c3ccccc3)cc(N3CC4CCC(C3)O4)n2)cc1 [1-[4-(hydroxymethyl)phenyl]-3-{4-[4-(8-oxa-3-azabicyclo[3.2.1]oct-3-yl)-6-phenylpyrimidin-2-yl]phenyl}urea]	130	
1100	4.15	63.5		CNCc1ccc(NC(=O)Nc2ccc(-c3nc(CS(C)(=O)=O)cc(N4CC5CCC(C4)O5)n3)cc2)cc1 [1-{4-[(methylamino)methyl]phenyl}-3-(4-{4-[(methylsulfonyl)methyl]-6-(8-oxa-3-azabicyclo[3.2.1]oct-3-yl)pyrimidin-2-yl}phenyl)urea]	1560	
90	5	405		CN(C)CCOc1ccc(NC(=O)Nc2ccc(-c3nc(CS(C)(=O)=O)cc(N4CC5CCC(C4)O5)n3)cc2)cc1 [1-{4-[2-(dimethylamino)ethoxy]phenyl}-3-(4-{4-[(methylsulfonyl)methyl]-6-(8-oxa-3-azabicyclo[3.2.1]oct-3-yl)pyrimidin-2-yl}phenyl)urea]	165	
